melting point [°C]	Structure (SMILES)
71 to 74	CCCNC(=O)c1ccc(C=O)cc1
191 to 192	O=C(Cc1csc(Nc2ccccc2)n1)NC1CCN(Cc2ccc(Cl)c(Cl)c2)CC1
228	CC12CCC3c4ccc(C(=O)O)cc4CCC3C1CCC2C(=O)c1cccc2ccccc12 (stereo not drawn)
125 to 126	COc1cc2c(cc1OCc1ccccc1)CCN(Cc1ccncc1)C2
160 to 162	CCCCCCCOc1ccc2c(c1)Nc1cccc(S(=O)(=O)N(C)C)c1S2
162 to 163	COc1ccc2c(c1)C(=O)c1c-2c(N2CCN(C(=O)CCCl)CC2)nc2ccccc12
36.3	CCOC(=O)C=Cc1cccc(I)c1
154 to 155	CC(C)c1cccc(C(C)C)c1NC(=O)N(Cc1ccc(N(C)C)cc1)c1ccc(C(C)(C)C)cc1
162 to 164	Cc1c(S(=O)(=O)C(F)(F)F)cc(-c2ccc(S(C)(=O)=O)cc2)n1-c1ccc(F)cc1
234	O=C(NC1CCOCC1)c1ccc(-c2cc(-c3c(-c4cccc(Cl)c4)nc4ccccn34)ccn2)cc1
193 to 194	CCOC(=O)NC(=N)NC#N
186 to 188	CCCCCCC(=O)Oc1cc(-c2nc3ccccc3[nH]c2=O)cc([N+](=O)[O-])c1OC(=O)CCCCCC
67 to 68	CCC(=O)NC1C=CC(CO)C1 (stereo not drawn)
220 to 221	c1ccc2c3cncc-3cncc2c1
235 to 237	COc1nc(C(=O)O)ccc1C#N
65 to 66	CCCCCCCC(SC)S(=O)(=O)c1ccc(C)cc1 (stereo not drawn)
245 to 246	CCOC(=O)c1sc(Oc2ccc(O)cc2)c2c1CCc1cnn(C)c1-2
130	O=C(Nc1ccc2ccc(N3CCCC3)nc2n1)c1ccccc1
108 to 110	CSc1nc(OCC(F)(F)F)c(C#N)c(N2CCc3ccccc3CC2)n1
148 to 150	Cc1c(C)c(N2Cc3cc(Cl)c(Cl)cc3C2)c(C)c2c1OC(C)(C)C2c1ccc(C(C)C)cc1 (stereo not drawn)
198 to 201	O=c1c(NCCCN(Cc2ccc(F)cc2)c2ccccn2)c(NCc2ccncc2)c1=O
129 to 130	Cc1cc(C)c2c(c1C)OC(=O)C2c1ccccc1 (stereo not drawn)
236 to 237	CC(C)(C)c1cc(C(=O)NC2CCCCC2)cc(C(C)(C)C)c1O

melting point [°C]	Structure (SMILES)
116 to 117	CCOC(=O)C1(C(=O)OCC)Oc2c(ccc(OC)c2Cl)C1O (stereo not drawn)
184 to 185	COc1ccc(C(=O)CCC(=O)O)cc1NC(C)=O
88 to 89	CCOC(=O)C(C)Oc1ncn(-c2ccccc2)n1 (stereo not drawn)
145 to 148	O=C(CCn1cnc2c(=O)[nH]cnc21)NCCCN1CCOCC1
85 to 87	Nc1c(F)cc(I)cc1Cl
142 to 143	O=S(=O)(CCCCl)Nc1cccc(COc2cccc3cccnc23)c1
90 to 91	O=S(=O)(c1cnn(-c2c(Cl)cc(C(F)(F)F)cc2Cl)c1Br)C(F)(F)F
223 to 225	CNC(=S)C1=CC2(CCOCC2)Oc2ccc([N+](=O)[O-])cc21
84 to 85	C=C(C)C(=O)OCCCCCCS(=O)(=O)c1ccc(O)c(C)c1
246 to 247	CCCCc1nc([N+](=O)[O-])c(CSc2ccccc2C(=O)O)n1Cc1ccc(C(=O)O)cc1
110 to 112	Nc1nc(Cl)c(C(F)(F)F)cc1Cl
270 to 275	COc1ccc(C(=O)NC(=O)Nc2ccc3c(c2)NC(=O)/C3=C\c2ccncc2)cc1
148 to 150	CS(=O)(=O)c1ccc(-c2cnn(CC(F)(F)F)c(=O)c2OC2CCCC2)cc1
218 to 219	CCOC(=O)c1c(Cn2cnnc2)nc2cc(OC)c(OC)cc2c1-c1ccc(OC)cc1
152 to 166	CC(C)Cn1c(C(C)O)nc2cnc3ccccc3c21 (stereo not drawn)
227 to 229	CCOC(=O)C1(CC(N)=O)C(=O)N2CCOc3cc(Cl)cc1c32 (stereo not drawn)
165 to 167	CN(C(=O)CN1C(=O)C(NC(=O)Nc2cccc(C#N)c2)N=C(CN2CCOCC2)c2ccccc21)c1ccccc1 (stereo not drawn)
74 to 76	O=C(O)C(O)Cc1ccc(OCCN2CCSc3ccccc32)cc1 (stereo not drawn)
68 to 70	Cc1ccccc1C(CCC(=O)NS(=O)(=O)c1ccccc1)Oc1cc(OCc2ccsc2)ccc1C#N (racemic)
140 to 141	CN(C)c1cc(NC(=O)c2ccccc2-c2ccc(C(F)(F)F)cc2)cnc1OCCCC1(C(=O)NCC(F)(F)F)c2ccccc2-c2ccccc21
80 to 89	CCOC(=O)C(C(=O)C(C)C)C(CC(=O)C(C)(C)C)c1ccc(F)cc1 (stereo not drawn)
208 to 210	O=C1[C@@H]2Cc3c([nH]c4ccccc34)[C@H](c3ccc4c(c3)OCO4)N2C(=O)N1Cc1ccccc1 (relative stereo)
140 to 143	Cc1onc(-c2ccccc2)c1-c1cc(F)c(S(C)(=O)=O)c(F)c1

melting point [°C]	Structure (SMILES)
38 to 39	C=C(C)CCOc1ccc([N+](=O)[O-])cc1Cl
105 to 107	COC1(c2cccc(OCc3ccc4ccccc4c3)c2)CC(C)OC(C)C1 (stereo not drawn)
177 to 178	CC(C)(C)OC(=O)N1CCCN(c2ccnc3sc(C(N)=O)c(N)c23)CC1
157 to 159	NC1=NC2(CN(C(=O)OCc3ccccc3)C2)Nc2cccc(F)c21
173 to 175	CC(=O)Nc1ccc(OCC2CO2)c(-c2nnco2)c1 (stereo not drawn)
162	CN(C)C(=O)Nc1ccc(OCc2nc(Cl)ccc2Cl)cc1
149 to 152	CCOC(=O)c1cn(-c2ncns2)c2cc(F)c(F)cc2c1=O
179 to 181	CN(C)c1cc(CC(C#N)=CNc2ccccc2)cc(N(C)C)c1N(C)C
29 to 31	C#CCN1CSCC1=O
> 260	Fc1ccccc1CN[C@H]1CCCN[C@H]1c1ccccc1 (relative stereo)
87 to 90	CC(CC1(c2ccccc2)C=CCC=C1)N(C)C (stereo not drawn)
90 to 91	COc1cccc(Oc2cccc(C#CC(C)N(O)C(N)=O)c2)n1 (stereo not drawn)
89	O=C1c2ccc(Cl)cc2CC1Sc1ccccc1 (stereo not drawn)
180 to 181	Fc1cccc(F)c1-c1ncc(-c2ccc(Br)cc2)nn1
98 to 99	COc1cc(Nc2c(C#N)cnc3cc(/C=C/CCCCCCCCCN4CCOCC4)c(OC)cc23)c(Cl)cc1Cl
339	Nc1c(Cl)cc(Nc2ncnc3cnc(N[C@H]4CC[C@H](C(=O)O)CC4)nc23)cc1Cl
> 250	COc1ccc2c(Cc3c(Cl)cncc3Cl)nnc(-n3ccnc3)c2c1
42 to 44	CCCCCCCCCCCCC1=C(OC(=O)CC)C(=O)c2ccccc2C1=O
180 to 183	CC(C)COc1c(-c2ccc(S(C)(=O)=O)c(F)c2)cnn(-c2cccc(Cl)c2)c1=O
208 to 209	O=C(Nc1ccc(OC(F)(F)F)cc1)NC1CCN(C(=O)c2ccc(Cl)nc2)CC1
51 to 52	CCCCCCCCCCC(=O)c1ccncc1
243 to 246	O=C1Nc2cccc(-c3ccc(Oc4ccccc4)cc3)c2C12COc1cc3c(cc12)OCCO3 (stereo not drawn)
114 to 115	CN(C(=O)OC(C)(C)C)c1cc(Oc2ccc(Cc3ccccc3)cc2)ccc1N

melting point [°C]	Structure (SMILES)
237 to 239	CC(=O)NC1Cc2ccc(S(=O)(=O)Cl)cc2C1 (stereo not drawn)
141 to 143	CCc1cc(C#N)c(=O)[nH]c1COCc1ccccc1
128 to 130	CS(=O)(=O)OCC(O)(CC(Cl)(Cl)Cl)c1ccccc1 (stereo not drawn)
91.9	CCN(C)C(=O)c1ccc(N2CCN(Cc3cnc4c(c3)NC(=O)[C@@H]3CCCN43)CC2)cc1
220	COc1cccc(C2=C(C#N)C(c3cccc4nsnc34)c3c[nH]nc3N2)c1 (stereo not drawn)
158	CC1(C)CCCN(C(=O)c2ccccc2NC(=O)CN2C(=O)c3ccccc3C2=O)C1
174 to 176	O=C(O)CC1CN(Cc2ccc(Cl)c(Cc3ccccc3)c2Cl)C(=O)N(c2ccc(Br)cc2)C1 (stereo not drawn)
182	O=C(NCCN1CCCCC1)c1nc(NCC(c2ccccc2)c2ccccc2)c2ncn([C@@H]3O[C@H](CO)[C@@H](O)[C@H]3O)c2n1
143 to 146	CNc1cccc2c(=O)c(C)c(-c3ccccc3)oc12
178 to 179	CS(=O)(=O)c1ccc(-c2ccccc2-c2ccc(F)cc2)cc1
97 to 99	Cc1c(CO)ncn1CCCNC(C)(C)c1ccc(Cl)cc1
146 to 148	CCN(CCNC(=O)c1ccnc(F)c1)CCNC(=O)c1cnc2cc(I)ccc2n1
96	CC1CCCC(C)C1=CC1C(C(=O)O)C1(C)C (stereo not drawn)
175 to 177	COc1ccc(CN2C(=O)CN(Cc3ccc(C(=O)O)cc3)S2(=O)=O)c(OC)c1
129 to 130	CCOC(=O)C(=CNC1CC1)C(=O)c1cc(F)c(Cl)nc1Cl
67 to 72	Cn1cnc(Cc2cccc3c2OC(C)(C)OC3)c1
153 to 155	CCOc1cc(C)c(Cl)cc1S(N)(=O)=O
185 to 188	Cc1cc(CN2CCN(c3nc(C)c(C(=O)NCc4cccnc4)s3)C2=O)no1
173	CCn1cc(CN(C(=O)C2CCCc3c(O)cccc32)c2ccc(C(C)C)nc2)cn1 (stereo not drawn)
> 300	Cc1cc(=O)[nH]c2cc(O)cc(O)c12
260 to 262	N#Cc1cnc2ccccc2c1Nc1ccc(Cl)cc1Cl
142 to 143	CSc1ccc(-c2nn(CC3CC3)c(=O)cc2-c2ccc(Cl)cc2)cc1
152	CC(C)CCNC1(c2ccccc2Cl)C(=O)Nc2ccc(Cl)cc21 (stereo not drawn)

Structure (SMILES)	melting point [°C]
CN(C)C(=O)Oc1ccc(C=O)c(O)c1	58 to 60
CC(C)N(C(=O)CN1C(=O)C(NC(=O)Nc2ccccc2)C(=O)N(c2ccccc2)c2ccccc21)c1ccccc1 (stereo not drawn)	230 to 235
CCc1c(C(=O)C(N)=O)c2c(NCC(=O)O)cccc2n1Cc1ccccc1	151 to 157
CC(C)(C)SC(=O)C=CC1C(C(=O)OCc2ccc(F)c(Oc3ccccc3)c2)C1(C)C (stereo not drawn)	82
Cc1nnc(CNC(=O)CN(C)C)n1-c1ccc(Cl)cc1C(=O)c1ccccc1	176 to 178
CC(=O)OC1CC2CCC3C(CCC4(C)C3CC(N3CCCCC3)C4OC(C)=O)C2(C)CC1N1CCOCC1 (stereo not drawn)	119 to 128

From a melting point compilation (Tetko et al.; mined from patent text by program, amines drawn as free bases though some values may be those of a salt)
